Data: US5219884A, “Immunosuppressant” (Taito Co., Ltd., priority 1990, dated 1993)
Like-named read-outs stand apart in the source and are kept apart here.

How the values were obtained:
[1] = system: mouse allogenic mixed lymphocyte reaction (BALB/c responder, C57BL/6 stimulator spleen cells); experiment: mouse allogenic mixed lymphocyte reaction (MLR), blastogenesis by 3H-thymidine uptake; assay type: cell-based
Method: The immunosuppressive activity of the compounds (I) and their lactones was assayed by using mouse allogenic mixed lymphocyte reaction (hereinafter sometimes abbreviated as MLR). Mouse allogenic MLR was carried out by mixed culture of the BALB/c mouse (H-2^d) spleen cells as the responder cells and the mitomycin C-treated C57BL/6 (H-2^b) spleen cells as the stimulator cells in equal amounts.
The responder cells were prepared as follows: The spleen was resected from 5- to 6-week-old male BALB/c mice, and single cell suspension of spleen cells was prepared by using the RPMI1640 culture medium (containing 60 μg/ml of kanamycin sulfate, 2 mM of L-glutamine, 10 mM of N-2-hydroxyethylpiperazine-N'-2-ethanesulfonate (HEPES) and 0.1% sodium hydrogencarbonate) to which heat-inactivated fetal calf serum (hereinaftersometimes abbreviated as FCS) had been added to 5%. After hemolytic treatment, the cell suspension was adjusted to a concentration of 10^7 cells/ml by using the RPMI1640 culture medium supplemented with 10^-4 M 2-mercaptoethanol and 20% FCS, and was used as the responder cell suspension.
The stimulator cells were prepared as follows:
The spleen was resected from 5- to 6-week-old male C57BL/6 mice, and single cell suspension of spleen cells was prepared by using the RPMI1640 culture medium. After hemolytic treatment, the cells were treated with 40 μg/ml of mitomycin C at 37° C. for 60 minutes. After washing three times, the concentration of the cell suspension was adjusted to 10^7 cells/ ml by using the RPMI1640 culture medium supplemented with 10^-4 M 2-mercaptoethanol and 20% FCS, and was used as the stimulator cell suspension.
Fifty μl of the responder cell suspension, 50μl of the stimulator cell suspension prepared by the above method, and 100 μl of the test substance were placed in 96-well microculture plates, and were cultured at 37° C. in an atmosphere of 5% carbon dioxide for 4 days.
The blastogenesis of lymphocytes was assayed by a method of ^3 H-thymidine uptake as an index. That is, after termination of the culture, 0.5 μCi/well of ^3 H-thymidine was added and cultured for 4 hours. Cells were harvested by a cell-harvester, and the radioactivity incorporated into the cells was determined by a liquid scintillation counter to obtain the index of blastogenesis of lymphocytes in the mouse allogenic MLR. The suppression of the mouse allogenic MLR was evaluated by calculating the percent suppression by the following formula. [formula]
The test substance was dissolved in methanol or suspended in a mixture of methanol and acetic acid, and then diluted with the RPMI1640 culture medium.

[2] = cytotoxicity to mouse L929 cells; assay type: cell-based; conditions: mouse, l929 cells, read-out: Suppression
Method: (§1) Cytotoxicity to mouse L929 cells was assayed as follows:
(§2) L929 cells were suspended to the concentration of 1.5×10^5 cells/ml in the F12 culture medium supplemented with 10% FCS. One hundred μl of the suspension was added to each well of 96-well microculture plates, and cultured at 37° C. in an atmosphere of 5% carbon dioxide for 24 hours, to which 100 μl of the test solution was added and cultured for further 48 hours. After the culture, 100 μl of the supernatant was removed and the absorbancy at 550 nm was measured in the same way as the colormetry using MTT in Experimental Example 1. The percent suppression was calculated by the following formula used as the index of cytotoxicity. [formula]

[3] = system: mouse L929 cells; experiment: cytotoxicity to mouse L929 cells; assay type: cell-based; conditions: 550 nm
Method: as §1, §2

[4] = in vitro; assay type: cell-based, human; conditions: human, read-out: Suppression
Method: (§3) Cytotoxicity to human tumor cell lines was examined as follows:
(§4) Cells of human cell lines, K562, MOLT4, U937, HL60, KATOIII, KB, PC-6, PC-14 and CCRF-CEM were separately suspended to the concentration of 2×10^5 cells/ml in the RPMI1640 culture medium supplemented with 20% FCS. Fifty μl of this suspension was added to each well of 96-well microculture plates to which 50 μl of the test solution had been added. After culturing at 37° C. in an atmosphere of 5% carbon dioxide for 72 hours, the absorbancy at 550 nm was measured in the same way as the colorimetry using MTT in Experimental Example 1, and the percent suppression was calculated in the same manner as in Experimental Example 14, which was used as the index of cytotoxicity.

[5] = system: CCRF-CEM; experiment: in vitro; assay type: cell-based, human
Method: as §3, §4

[6] = system: HL60; experiment: in vitro; assay type: cell-based, human
Method: as §3, §4

[7] = system: K562; experiment: in vitro; assay type: cell-based, human
Method: as §3, §4

[8] = system: KB; experiment: in vitro; assay type: cell-based, human
Method: as §3, §4

[9] = system: PC-14; experiment: in vitro; assay type: cell-based, human
Method: as §3, §4

[10] = system: U937; experiment: in vitro; assay type: cell-based, human
Method: as §3, §4

[11] = cytotoxicity to tumor cell line MOLT4; assay type: cell-based, human; conditions: human, molt4 cells, read-out: Suppression
Method: as §3, §4

[12] = system: MOLT4; experiment: cytotoxicity to tumor cell line MOLT4; assay type: cell-based, human
Method: as §3, §4

CCCCCCC(O)CCCCCC/C=C/CC1OC(=O)C(N)(CO)C1O (stereo not drawn) [Example 8]
3H-thymidine uptake ([1]; 0.001 μg/ml): 22815 cpm | 3H-thymidine uptake ([1]; 0.01 μg/ml): 3081 cpm | 3H-thymidine uptake ([1]; 0.1 μg/ml): 1586 cpm | inhibition at 0.001 µg/mL ([1]; Mus musculus, Lymphocyte, 0.001 μg/ml, read-out: Suppression): 21.1% | inhibition at 0.01 µg/mL ([1]; Mus musculus, Lymphocyte, 0.01 μg/ml, read-out: Suppression): 100% | inhibition at 0.1 µg/mL ([1]; Mus musculus, Lymphocyte, 0.1 μg/ml, read-out: Suppression): 100% | cytotoxicity at 48 h ([2]; 1 μg/ml): 0% | cytotoxicity at 48 h ([2]; 10 μg/ml): 0% | cytotoxicity at 48 h ([2]; 100 μg/ml): 96% | Absorbancy ([3]; 1 μg/ml): 0.817 | Absorbancy ([3]; 10 μg/ml): 0.738 | Absorbancy ([3]; 100 μg/ml): 0.023 | cytotoxicity at 72 h ([4]; ccrf-cem cells, 0.1 μg/ml): 0% | cytotoxicity at 72 h ([4]; ccrf-cem cells, 1.0 μg/ml): 0% | cytotoxicity at 72 h ([4]; ccrf-cem cells, 10.0 μg/ml): 3.9% | cytotoxicity at 72 h ([4]; hl60 cells, 0.1 μg/ml): 16.9% | cytotoxicity at 72 h ([4]; hl60 cells, 1.0 μg/ml): 14.8% | cytotoxicity at 72 h ([4]; hl60 cells, 10.0 μg/ml): 19.9% | cytotoxicity at 72 h ([4]; k562 cells, 0.1 μg/ml): 15.1% | cytotoxicity at 72 h ([4]; k562 cells, 1.0 μg/ml): 16.6% | cytotoxicity at 72 h ([4]; k562 cells, 10.0 μg/ml): 22.6% | cytotoxicity at 72 h ([4]; kb cells, 0.1 μg/ml): 0% | cytotoxicity at 72 h ([4]; kb cells, 1.0 μg/ml): 0% | cytotoxicity at 72 h ([4]; kb cells, 10.0 μg/ml): 3.3% | cytotoxicity at 72 h ([4]; pc-14 cells, 0.1 μg/ml): 4.6% | cytotoxicity at 72 h ([4]; pc-14 cells, 1.0 μg/ml): 10.3% | cytotoxicity at 72 h ([4]; pc-14 cells, 10.0 μg/ml): 31.2% | cytotoxicity at 72 h ([4]; u937 cells, 0.1 μg/ml): 0% | cytotoxicity at 72 h ([4]; u937 cells, 1.0 μg/ml): 0.5% | cytotoxicity at 72 h ([4]; u937 cells, 10.0 μg/ml): 12% | Absorbancy ([5]; 0.1 μg/ml): 0.720 | Absorbancy ([5]; 1.0 μg/ml): 0.694 | Absorbancy ([5]; 10.0 μg/ml): 0.665 | Absorbancy ([6]; 0.1 μg/ml): 0.434 | Absorbancy ([6]; 1.0 μg/ml): 0.445 | Absorbancy ([6]; 10.0 μg/ml): 0.418 | Absorbancy ([7]; 0.1 μg/ml): 0.327 | Absorbancy ([7]; 1.0 μg/ml): 0.321 | Absorbancy ([7]; 10.0 μg/ml): 0.298 | Absorbancy ([8]; 0.1 μg/ml): 0.741 | Absorbancy ([8]; 1.0 μg/ml): 0.749 | Absorbancy ([8]; 10.0 μg/ml): 0.706 | Absorbancy ([9]; 0.1 μg/ml): 0.452 | Absorbancy ([9]; 1.0 μg/ml): 0.425 | Absorbancy ([9]; 10.0 μg/ml): 0.326 | Absorbancy ([10]; 0.1 μg/ml): 0.590 | Absorbancy ([10]; 1.0 μg/ml): 0.580 | Absorbancy ([10]; 10.0 μg/ml): 0.513 | cytotoxicity at 72 h ([11]; 0.1 μg/ml): 2.1% | cytotoxicity at 72 h ([11]; 1.0 μg/ml): 5.5% | cytotoxicity at 72 h ([11]; 10.0 μg/ml): 8.3% | Absorbancy ([12]; 0.1 μg/ml): 0.142 | Absorbancy ([12]; 1.0 μg/ml): 0.137 | Absorbancy ([12]; 10.0 μg/ml): 0.133
